# According to patent US12622911B2, “Methods and compositions for the treatment of pulmonary fibrosis using volasertib” (Children's Hospital Medical Center, priority 2021, dated 2026):
# What was measured:
# [1] = test system: severe fibrotic lung disease; experiment: Therapeutic efficacy against severe fibrotic lung disease in two alternative mouse models (TGFα transgenic, repeated bleomycin); assay type: in vivo; details: compared to FDA-approved nintedanib therapy
# Text: WT1-driven anti-apoptotic genes (BCL3, BCL2L1, etc.), MYCN, and PLK1 were previously unknown to have a role in the pathogenesis of lung scarring, in fibroproliferation, FMT, survival, and ECM production. […] A novel clinical application for volasertib in the area of pulmonary fibrosis may include volasertib therapy to prevent progression or reverse established fibrotic lung disease. Applicant's studies utilize a novel transgenic mouse model in which the pro-fibrotic growth factor TGFα is selectively and temporally overexpressed in the lung epithelium, resulting in progressive subpleural scarring, similar to the pattern seen in human IPF, and an alternative mouse model of fibrosis using repeated doses of bleomycin. Applicant's data provide compelling support that inhibiting the MYCN-PLK1 axis may be effective in arresting fibrotic lung remodeling, and may be used in patients with pulmonary fibrosis.
# PLK1 = PLK1 (Homo sapiens, UniProt P53350); details: cited from earlier work
# Sequence of PLK1 (P53350 whole entry, species assumed): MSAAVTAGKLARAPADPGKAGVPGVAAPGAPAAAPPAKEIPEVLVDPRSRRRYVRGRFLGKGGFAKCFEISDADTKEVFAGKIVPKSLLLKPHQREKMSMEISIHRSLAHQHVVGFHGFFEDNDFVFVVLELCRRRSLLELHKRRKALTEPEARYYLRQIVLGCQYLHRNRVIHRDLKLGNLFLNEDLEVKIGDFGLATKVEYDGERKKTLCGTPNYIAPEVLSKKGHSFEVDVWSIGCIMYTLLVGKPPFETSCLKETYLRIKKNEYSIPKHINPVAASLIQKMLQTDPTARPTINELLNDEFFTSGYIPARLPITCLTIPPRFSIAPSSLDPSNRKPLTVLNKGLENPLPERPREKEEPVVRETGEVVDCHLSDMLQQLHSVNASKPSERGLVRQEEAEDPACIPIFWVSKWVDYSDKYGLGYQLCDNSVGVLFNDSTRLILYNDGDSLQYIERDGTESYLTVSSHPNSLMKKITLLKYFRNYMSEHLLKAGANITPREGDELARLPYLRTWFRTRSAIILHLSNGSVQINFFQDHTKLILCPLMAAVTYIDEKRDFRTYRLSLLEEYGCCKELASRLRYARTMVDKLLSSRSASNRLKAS
# [2] = test system: TGFα-induced pulmonary fibrosis; experiment: TGFα-induced pulmonary fibrosis in TGFα mice on Dox, lung gene expression; assay type: in vivo; details: volasertib 30 mg/kg QD with Dox for five days
# Text: FIG. 18. In vivo inhibition of PLK1 with volasertib attenuates ECM gene expression during TGFα-induced pulmonary fibrosis.
# FIG. 19. In vivo inhibition of PLK1 with volasertib attenuates MYCN and PLK1 during TGFα induced pulmonary fibrosis.
# FIG. 21. In vivo inhibition with volasertib attenuates ECM gene expression during TGFα-induced pulmonary fibrosis. *P<0.05.
# (§1) Pharmacological inhibition of PLK1 attenuates the WT1-MYCN-PLK1 axis. […] To determine in vivo therapeutic effects of volasertib, TGFα mice were treated simultaneously with volasertib (30 mg/kg; QD) and Dox for five days, a period that leads to activation of WT1, MYCN and PLK1 in fibroblasts. […] Together, in vivo studies have established that inhibiting PLK1 is sufficient to attenuate the WT1-MYCN-PLK1 axis involved in fibroblast activation and pulmonary fibrosis.
# [3] = test system: WT1-MYCN-PLK1 axis in IPF fibroblasts; experiment: PLK1, MYCN and WT1 protein levels in IPF fibroblast lysates by western blot; assay type: cell-based, human; details: volasertib 1 μM for 48 hours, western blot normalized to GAPDH, FIG. 17
# Experimental: FIG. 17. Volasertib treatment attenuates the WT1-MYCN-PLK1 axis in IPF fibroblasts. IPF fibroblasts were treated with vehicle or volasertib (1 μM) for 48 hours and measured PLK1, MYCN and WT1 protein levels in cell lysates using western blots and normalized to GAPDH. *P<0.05.
# as §1
# IPF fibroblasts [4] = experiment: CDK4 gene expression in IPF fibroblasts by RT-PCR; assay type: cell-based, human; details: vehicle or volasertib for 16 hours, FIG. 20
# [5] = H&E stainings for toxicity in volasertib-treated TGFα mice; assay type: in vivo; details: at the doses tested (30 mg/kg QD, five days), data not shown
# Experimental: as §1
# IPF fibroblasts [6] = experiment: ECM-associated gene transcripts in IPF fibroblasts by RT-PCR; assay type: cell-based, human; details: vehicle or volasertib for 16 hours, FIG. 16
# Experimental: FIG. 16. Inhibition of PLK1 using volasertib attenuates ECM gene expression. IPF fibroblasts were treated with vehicle or volasertib for 16 hours and ECM-associated gene transcripts Col1α, Col3α1, FN1, and αSMA) were measured using RT-PCR. *p<0.05.
# as §1
compound,measurement,setting,value
"CC[C@@H]1C(=O)N(C)c2cnc(Nc3ccc(C(=O)N[C@H]4CC[C@H](N5CCN(CC6CC6)CC5)CC4)cc3OC)nc2N1C(C)C [volasertib, N-[trans-4-[4-(cyclopropylmethyl)-1-piperazinyl]cyclohexyl]-4-[[(7R)-7-ethyl-5,6,7,8-tetrahydro-5-methyl-8-(1-methylethyl)-6-oxo-2-pteridinyl]amino]-3-methoxy-benzamide]",therapeutic efficacy against severe fibrotic lung disease,[1],demonstrated therapeutic efficacy
same,binds and inhibits PLK1,PLK1,at nanomolar doses
same,MYCN and PLK1 levels in lungs,[2]; FIG. 19,able to attenuate both MYCN and PLK1 levels
same,"ECM gene expression including Col1α1, Col3a1, and FN1","[2]; vs vehicle-treated fibrosis controls, FIG. 18",attenuated ECM gene expression
same,"MYCN, WT1 and PLK1 levels",[3],"sufficient to attenuate MYCN, WT1 and PLK1 levels"
same,CDK4 gene expression,IPF fibroblasts [4],attenuates CDK4 gene expression
same,toxicity by H&E stainings,[5],no toxicity
same,"ECM gene expression (Col1α, Col3α1, FN1, αSMA transcripts)",IPF fibroblasts [6],sufficient to attenuate ECM gene expression
